Values after ≈ are worked out from the molar mass of the structure shown.
Key:
Botrytis cinerea [1] = assay: Fungicidal activity against Botryotinia fuckeliana in 2 hr compound pretreated cucumber seedling assessed as inhibition of spot diameter squared as control efficiency at 200 ug/ml measured after 72 hr; type: functional; design: scale not given: the % may be the effect or the level left
Botrytis cinerea [2] = assay: Fungicidal activity against Botryotinia fuckeliana assessed as germ-tube elongation inhibition at 50 ug/ml measured after 24 hr; type: functional
Botrytis cinerea [3] = assay: Fungicidal activity against Botryotinia fuckeliana assessed as inhibition of mycelial growth measured after 72 hr; type: functional, organism-based
Botrytis cinerea [4] = assay: Fungicidal activity against Botryotinia fuckeliana assessed as inhibition of spore germination measured after 24 hr; type: functional, organism-based

Work on `CCCNC1=C(S(=O)(=O)NCCC)C(=O)CC(C)(C)C1` yielded an Activity (Botrytis cinerea [1]) of 66.59%, an inhibition at 50 µg/mL (Botrytis cinerea [2]) of 51.2% and an EC50 (Botrytis cinerea [3]) of 149 µg/mL (≈ 494 µM). The EC50 (Botrytis cinerea [4]) was 0.23 µg/mL (≈ 0.76 µM) and the EC80 (Botrytis cinerea [4]) was 15.6 µg/mL (≈ 51.7 µM).

`O=C1CCCC(Nc2ccccc2Cl)=C1S(=O)(=O)Nc1ccccc1Cl` showed an Activity (Botrytis cinerea [1]) of 74.81%, an inhibition at 50 µg/mL (Botrytis cinerea [2]) of 81.9% and an EC50 (Botrytis cinerea [3]) of 10.6 µg/mL (≈ 25.7 µM). It also gave an EC50 (Botrytis cinerea [4]) of 0.37 µg/mL (≈ 0.9 µM) and an EC80 (Botrytis cinerea [4]) of 60.9 µg/mL (≈ 148 µM).

`O=C1CCCC(Nc2ccc(Cl)cc2)=C1S(=O)(=O)Nc1ccc(Cl)cc1` gave an Activity (Botrytis cinerea [1]) of 53.57%, an inhibition at 50 µg/mL (Botrytis cinerea [2]) of 61.3% and an EC50 (Botrytis cinerea [3]) of 125 µg/mL (≈ 305 µM). The EC50 (Botrytis cinerea [4]) was 0.26 µg/mL (≈ 0.632 µM) and the EC80 (Botrytis cinerea [4]) was over 200 µg/mL.

`Cc1ccc(NC2=C(S(=O)(=O)Nc3ccc(C)cc3)C(=O)CCC2)cc1` was tested, and the Activity (Botrytis cinerea [1]) was 57.48%, the inhibition at 50 µg/mL (Botrytis cinerea [2]) was 20.5% and the EC50 (Botrytis cinerea [3]) was 47.4 µg/mL (≈ 128 µM). For the same molecule, the EC50 (Botrytis cinerea [4]) was 0.54 µg/mL (≈ 1.46 µM) and the EC80 (Botrytis cinerea [4]) was 117 µg/mL (≈ 315 µM).

`CC1(C)CC(=O)C(S(=O)(=O)Nc2ccccc2Cl)=C(Nc2ccccc2Cl)C1` was tested, and the Activity (Botrytis cinerea [1]) was 73.39%, the inhibition at 50 µg/mL (Botrytis cinerea [2]) was 85.7% and the EC50 (Botrytis cinerea [3]) was 21.2 µg/mL (≈ 48.2 µM). For the same molecule, the EC50 (Botrytis cinerea [4]) was 0.34 µg/mL (≈ 0.774 µM) and the EC80 (Botrytis cinerea [4]) was 4.53 µg/mL (≈ 10.3 µM).

In the case of `CC1(C)CC(=O)C(S(=O)(=O)Nc2cccc(Cl)c2)=C(Nc2cccc(Cl)c2)C1`, the Activity (Botrytis cinerea [1]) is reported as 58.51%, the inhibition at 50 µg/mL (Botrytis cinerea [2]) is reported as 58.6% and the EC50 (Botrytis cinerea [3]) is reported as 32.7 µg/mL (≈ 74.4 µM). It also gave an EC50 (Botrytis cinerea [4]) of 3.03 µg/mL (≈ 6.9 µM) and an EC80 (Botrytis cinerea [4]) of 128 µg/mL (≈ 290 µM).

For `CC1(C)CC(=O)C(S(=O)(=O)Nc2ccc(Cl)cc2)=C(Nc2ccc(Cl)cc2)C1`, the Activity (Botrytis cinerea [1]) was 65.89%, the inhibition at 50 µg/mL (Botrytis cinerea [2]) was 78.6% and the EC50 (Botrytis cinerea [3]) was 128 µg/mL (≈ 290 µM). For the same molecule, the EC50 (Botrytis cinerea [4]) was 0.54 µg/mL (≈ 1.23 µM) and the EC80 (Botrytis cinerea [4]) was 7.04 µg/mL (≈ 16 µM).

With `CC1(C)CC(=O)C(S(=O)(=O)Nc2ccc(Cl)c(Cl)c2)=C(Nc2ccc(Cl)c(Cl)c2)C1` the Activity (Botrytis cinerea [1]) was 69.77%, the inhibition at 50 µg/mL (Botrytis cinerea [2]) was 64.3% and the EC50 (Botrytis cinerea [3]) was 67.7 µg/mL (≈ 133 µM). For the same molecule, the EC50 (Botrytis cinerea [4]) was 2.66 µg/mL (≈ 5.23 µM) and the EC80 (Botrytis cinerea [4]) was 12.3 µg/mL (≈ 24.2 µM).

Work on `CC1(C)CC(=O)C(S(=O)(=O)Nc2ccc(Br)cc2)=C(Nc2ccc(Br)cc2)C1` yielded an Activity (Botrytis cinerea [1]) of 45.09%, an inhibition at 50 µg/mL (Botrytis cinerea [2]) of 67.9% and an EC50 (Botrytis cinerea [3]) of 39.1 µg/mL (≈ 74.1 µM). The EC50 (Botrytis cinerea [4]) was 1.44 µg/mL (≈ 2.73 µM) and the EC80 (Botrytis cinerea [4]) was 7.39 µg/mL (≈ 14 µM).

`CC1(C)CC(=O)C(S(=O)(=O)Nc2ccccc2)=C(Nc2ccccc2)C1` gave an Activity (Botrytis cinerea [1]) of 61.17%, an inhibition at 50 µg/mL (Botrytis cinerea [2]) of 21.4% and an EC50 (Botrytis cinerea [3]) of 147 µg/mL (≈ 398 µM). For the same molecule, the EC50 (Botrytis cinerea [4]) was 96.6 µg/mL (≈ 261 µM) and the EC80 (Botrytis cinerea [4]) was over 200 µg/mL.

In the case of `CC1(C)CC(=O)C(S(=O)(=O)NCc2ccccc2)=C(NCc2ccccc2)C1`, the Activity (Botrytis cinerea [1]) is reported as 42.16%, the inhibition at 50 µg/mL (Botrytis cinerea [2]) is reported as 28.6% and the EC50 (Botrytis cinerea [3]) is reported as 26.4 µg/mL (≈ 66.2 µM). The EC50 (Botrytis cinerea [4]) was 73.4 µg/mL (≈ 184 µM) and the EC80 (Botrytis cinerea [4]) was 139 µg/mL (≈ 349 µM).

Molecule `Cc1ccccc1NC1=C(S(=O)(=O)Nc2ccccc2C)C(=O)CC(C)(C)C1` has an Activity (Botrytis cinerea [1]) of 64.43%, an inhibition at 50 µg/mL (Botrytis cinerea [2]) of 57.2% and an EC50 (Botrytis cinerea [3]) of 8.05 µg/mL (≈ 20.2 µM). For the same molecule, the EC50 (Botrytis cinerea [4]) was 19.5 µg/mL (≈ 49 µM) and the EC80 (Botrytis cinerea [4]) was 140 µg/mL (≈ 352 µM).

In the case of `Cc1ccc(NC2=C(S(=O)(=O)Nc3ccc(C)cc3)C(=O)CC(C)(C)C2)cc1`, the Activity (Botrytis cinerea [1]) is reported as 58.6%, the inhibition at 50 µg/mL (Botrytis cinerea [2]) is reported as 57.2% and the EC50 (Botrytis cinerea [3]) is reported as 22.8 µg/mL (≈ 57.2 µM). For the same molecule, the EC50 (Botrytis cinerea [4]) was 3.29 µg/mL (≈ 8.26 µM) and the EC80 (Botrytis cinerea [4]) was 72.1 µg/mL (≈ 181 µM).

In the case of `Cc1cc(F)ccc1NC1=C(S(=O)(=O)Nc2ccc(F)cc2C)C(=O)CC(C)(C)C1`, the Activity (Botrytis cinerea [1]) is reported as 73.46%, the inhibition at 50 µg/mL (Botrytis cinerea [2]) is reported as 42.9% and the EC50 (Botrytis cinerea [3]) is reported as 45.7 µg/mL (≈ 105 µM). For the same molecule, the EC50 (Botrytis cinerea [4]) was 1.59 µg/mL (≈ 3.66 µM) and the EC80 (Botrytis cinerea [4]) was over 200 µg/mL.

`CC1(C)CC(=O)C(S(=O)(=O)Nc2ccc(Cl)cc2C(F)(F)F)=C(Nc2ccc(Cl)cc2C(F)(F)F)C1` showed an Activity (Botrytis cinerea [1]) of 47.92%, an inhibition at 50 µg/mL (Botrytis cinerea [2]) of 51.1% and an EC50 (Botrytis cinerea [3]) of 154 µg/mL (≈ 268 µM). It also gave an EC50 (Botrytis cinerea [4]) of 6.14 µg/mL (≈ 10.7 µM) and an EC80 (Botrytis cinerea [4]) of over 200 µg/mL.

`CC1(C)CC(=O)C(S(=O)(=O)Nc2cccc(C(F)(F)F)c2)=C(Nc2cccc(C(F)(F)F)c2)C1` was tested, and the Activity (Botrytis cinerea [1]) was 67.74%, the inhibition at 50 µg/mL (Botrytis cinerea [2]) was 30.6% and the EC50 (Botrytis cinerea [3]) was 156 µg/mL (≈ 308 µM). The EC50 (Botrytis cinerea [4]) was 0.16 µg/mL (≈ 0.316 µM) and the EC80 (Botrytis cinerea [4]) was 14.2 µg/mL (≈ 27.9 µM).

`CC1(C)CC(=O)C(S(=O)(=O)Nc2cc(C(F)(F)F)cc(C(F)(F)F)c2)=C(Nc2cc(C(F)(F)F)cc(C(F)(F)F)c2)C1` gave an Activity (Botrytis cinerea [1]) of 75.29%, an inhibition at 50 µg/mL (Botrytis cinerea [2]) of 61.5% and an EC50 (Botrytis cinerea [3]) of 92.2 µg/mL (≈ 144 µM). For the same molecule, the EC50 (Botrytis cinerea [4]) was 0.51 µg/mL (≈ 0.794 µM) and the EC80 (Botrytis cinerea [4]) was 34.8 µg/mL (≈ 54.2 µM).

With `CC1(C)CC(=O)C(S(=O)(=O)NC2CCCCC2)=C(NC2CCCCC2)C1` the Activity (Botrytis cinerea [1]) was 82.21%, the inhibition at 50 µg/mL (Botrytis cinerea [2]) was 61.5% and the EC50 (Botrytis cinerea [3]) was 63.7 µg/mL (≈ 167 µM). It also gave an EC50 (Botrytis cinerea [4]) of 0.64 µg/mL (≈ 1.67 µM) and an EC80 (Botrytis cinerea [4]) of 15.4 µg/mL (≈ 40.3 µM).

`CC12CC1(C)C(=O)N(c1cc(Cl)cc(Cl)c1)C2=O` (stereo not given) [PROCYMIDONE] was tested, and the Activity (Botrytis cinerea [1]) was 80.39%, the inhibition at 50 µg/mL (Botrytis cinerea [2]) was 100% and the EC50 (Botrytis cinerea [3]) was 0.63 µg/mL (≈ 2.22 µM). The EC50 (Botrytis cinerea [4]) was 0.98 µg/mL (≈ 3.45 µM) and the EC80 (Botrytis cinerea [4]) was 3.18 µg/mL (≈ 11.2 µM).

From ChEMBL document CHEMBL3044660, “Synthesis of 2-amino-6-oxocyclohexenylsulfonamides and their activity against Botrytis cinerea” (Pest Manag Sci, 2011)
